The values that follow come from patent US10703698B2, “Compounds which activate estrogen receptors and compositions and methods of using the same” (The Board of Trustees of the University of Illinois, priority 2016, dated 2020).

Entries after “also recorded” stand apart in the source; their conditions may differ.

Data set [1] has as its system eNOS. Nature of the data set: eNOS activation in primary endothelial cells (14C-L-arginine to 14C-L-citrulline). The conditions noted are these: 15 min; 10 nM ligand (FIG. 9E). The format is cell-based, bovine.
Data set [2] concerns ERα knock-out (ERKO) C57BL/6 mice. Nature of the data set: effects in ERα knock-out (ERKO) mice. Type of data set: in vivo. The conditions noted are these: 3 weeks; listed as PaPE-1. The protocol: FIG. 13. Effects of PaPE-1 require ERα. […] Animals were on normal chow diet. Change in body weight was monitored. (B) Uterus weights of animals from (A) at the end of 3 weeks of vehicle (Veh) or ligand treatment. (C) Triglyceride levels in the blood of animals from (A) after 3 weeks of ligand exposure.
Studies used wild type and ERα knockout mice in C57BL/6 background. All experiments involving animals were conducted in accordance with National Institutes of Health standards for the use and care of animals, with protocols approved by the University of Illinois at Urbana-Champaign and the University of Texas Southwestern Medical Center. Wild-type C57BL/6 mice were purchased from Jackson Laboratories/National Cancer Institute. ERα knockout mice with complete excision of ERα and wild type littermates were obtained from Taconic and were used as described previously in Dupont et al., Development, 127, 4277-4291, […], and Hewitt et al. FASEB J., 24, 4660-4667, 2010.

The test system of data set [3] is ovariectomized C57BL/6 mice. As to the kind of experiment: stroke model, transient middle cerebral artery occlusion (tMCAo).
The test system of data set [4] is MCF-7 cells. As to the kind of experiment: Seahorse cell metabolic phenotype assays in MCF-7 cells. Type of data set: cell-based, human. As to conditions: 24 hours; listed as PaPE-1.
Data set [5] relates to MCF-7 cells. Nature of the data set: RNA-Seq of MCF-7 cells treated with OA with and without PaPE-1. The format is cell-based, human. The protocol:
FIG. 38. Identification of genes induced by OA and PaPE-1's effect on the gene regulation. (A) RNA-Seq analysis of gene expression changes induced by OA and OA+PaPE1. Heat map of the genes with significant changed expression. MCF-7 cells were treated with Veh or 100 nM OA with and without 1 μM PaPE-1 for 24 h. RNA was isolated and RNA-Seq was performed using 2 samples from each treatment group. Differentially regulated genes were determined with p<0.05 and expression fold change >2. (B) Clusters from A. regulated by OA and reversed by PaPE-1. The average gene expression level of the cluster1 (C1) and 2 (C2) identified as PaPE-1 regulated high-fat genes. In C1, there are 425 genes whose expression were found stimulated in OA but not in the OA+PaPE-1 treatment. In C2, there are 646 genes whose expression were found suppressed in the OA but restored by OA+PaPE-1 treatment. (C) Venn diagram analysis. […] (D) Examples of OA-regulated genes. Some of the top functions of the involved genes are presented.

The nature of data set [6]: pharmacokinetics after SC injection in ovariectomized mice. The conditions noted are these: female, C57BL/6, mouse, serum, 100 ug, subcutaneous injection. Type of data set: in vivo. The protocol:
For short-term studies, ovariectomized C57BL/6 mice were injected SC with 100 μg of PaPE-1 in 100 μl DMSO. Three mice were sacrificed at each time point, and 400 μl of blood was obtained from the abdominal aorta. Samples were centrifuged at 2000 g for 10 min, and serum was collected. A 50 μl portion of each sample was submitted to the Metabolomics Center at the University of Illinois for analysis. For longer-term studies, ovariectomized C57BL/6 mice were implanted SC with a pellet fabricated with 8 mg PaPE-1 and 12 mg cholesterol. Blood samples (30 μl) were collected by tail snipping every week until the third week of treatment. Samples were centrifuged at 2000 g for 10 min and serum was collected. Serum (10 μl) was mixed with 40 μl of PBS and submitted to the Metabolomics Center for analysis. For analysis, a mass standard of PaPE-1 (labeled with three deuterium atoms) was added to each sample before analysis by liquid chromatography-mass spectrometry using the 5500 QTrap with Agilent 1200 HPLC.

Data set [7] deals with ovariectomized C57BL/6 mice. The conditions noted are these: mouse, in vivo.
Data set [8] deals with mTOR and MAPK signaling. As to the kind of experiment: Western blot of signaling pathway activation in MCF-7 cells. Type of data set: cell-based, human. An excerpt: Western blot analysis used specific antibodies for ERα (HC-20, Santa Cruz); ERK2 (D-2, Santa Cruz); and pS^6, pS6K, pmTOR, pRAPTOR, pRICTOR, pMAPK (Cell Signaling). Coimmunoprecipitation assays used antibodies for SRC3 (Santa Cruz, C-20) and ERα (Santa Cruz, F10).
Background: In western blotting, separated proteins are transferred to a membrane and probed.

The test system of data set [9] is MCF-7 cells. Nature of the data set: MCF-7 cell proliferation, WST-1 assay. The format is cell-based, human. The conditions noted are these: 6 days. The method, then:
Cells were seeded at 1000 cells/well in 96-well plates.

The subject of data set [10] is LRRC54 gene. Nature of the data set: LRRC54 (non-genomic gene) mRNA expression, qPCR. As to conditions: for LRRC54 (non-genomic gene) mRNA expression, in words: MCF-7 cells, 1 μM PaPE or 10 nM E2 for 4 h where stated, versus vehicle, E2 or compound 2.

For `Cc1cc(-c2ccc3c(c2)CCC3O)cc(C)c1O` (racemic) [Compound 2, 5-(4-hydroxy-3,5-dimethylphenyl)-2,3-dihydro-1H-inden-1-ol], the “eNOS / NOS activity” value in data set [1] is listed as “comparable response”. Also, the “ability to diminish body weight gain after ovariectomy in ERKO mice” value in data set [2] is “lost in the ERKO mice; also recorded: require ERα”. The “severity of CNS injury on MRI” value in data set [3] (3 and 7 days) was “decreased compared with control treatment”. For the same compound, the infarct volumes result in data set [3] (3d and 7d post-tMCAo, compared with vehicle) is “significantly reduced infarct volumes”. Moreover, in data set [3] (3 days post-stroke), the “degree of swelling associated with the injury” value was “attenuated” and the “reduction of leukocytes infiltrated in the brain” value amounted to 93%. Further, in [3] (6d post-tMCAo), the “rotorod functional recovery, of baseline” value stood at 85%. Moreover, in [3] (13d post-tMCAo), the “rotorod functional recovery, of baseline” value worked out at 82%. For the same compound, in data set [3] (mouse, in vivo), the “rotorod function post-stroke, in words” value is listed as “improved function post-stroke”. In addition, the “OA-induced glycolytic and aerobic respiration with PaPE-1” value in data set [4] is listed as “reversed by PaPE-1 treatment; also recorded: normalized by adding PaPE-1”. Moreover, in data set [5], the “cluster C1: genes stimulated in OA but not in OA+PaPE-1” value came to 425 genes and the “cluster C2: genes suppressed in OA but restored by OA+PaPE-1” value is 646 genes. For the same compound, in data set [5] (1 μM PaPE-1), the “OA-downregulated genes whose expression was restored by PaPE-1” value is reported as “about 60%” and the “OA-upregulated genes whose activation was blocked by PaPE-1” value is given as 80%. In addition, the half-life in [6] is about 60 min. Moreover, the uterine wet weight entry in data set [7] is recorded as “no effect”. In addition, the “Serl 18 phosphorylation of ERα” value in data set [8] is given as “did not induce any detectable”. Besides, the “activation of mTOR, MAPK (and AKT) signaling” value in data set [8] (listed as PaPE-1) was “very efficient in activating mTOR and MAPK signaling; also recorded: selectively activated mTOR and MAPK signaling”. Further, the “proliferation of MCF-7 cells” value in [9] is listed as “did not stimulate proliferation”. In data set [10] (FIG. 14), the “LRRC54 activation, fold higher level than E2” value is on record as 1.9 fold. In addition, in data set [10], the “LRRC54 (non-genomic gene) mRNA expression, in words” value is “equivalent activities”. Moreover, in data set [10] (listed as PaPE-1), the “LRRC54 (non-genomic gene) mRNA expression, in words” value is reported as “LRRC54 stimulation”.

What is called half-life is how long it takes for the measured level to halve. A low value points to rapid decline.
